Results published in patent publication US20060069074A1, “Genetic predictor of efficacy of anti-asthmatic agents for improving pulmonary function” (priority 2004, published 2006).

What was measured:
[1] = tested on: β2-adrenergic receptor (B2AR); details: cited from earlier work
[2] = Double-blind randomized crossover trial of montelukast and fluticasone propionate in children with asthma; FEV1 response by B2AR diplotype; format: in vivo, human; details: all children, 8-week treatment periods
Text: (§1) Briefly, 144 children ages 6 to 17 years with mild to moderate persistent asthma were enrolled. […] Children with severe asthma were excluded. Strunk R, et al., supra. Informed consent, approved by the Institutional Review Board of the subject's respective study institution, was obtained from a parent/guardian.

[3] = Baseline methacholine challenge (PC20) by B2AR diplotype; format: in vivo, human; details: for Methacholine PC20: geometric mean (95% CI), corrected for baseline percent predicted FEV1
Text: as §1

CC(C)(C)NCC(O)c1ccc(O)c(CO)c1 (stereo not shown) [albuterol]
Immediate bronchial responses to albuterol ([1]; carriers of the Arg16 allele vs carriers of the Gly16 allele, subjects naïve to B2AR-agonists): higher immediate responses
Bronchodilator response (improvement in FEV1) to albuterol ([1]; diplotype 4/6, Drysdale et al.): highest response
Lung function on regularly scheduled albuterol ([1]; homozygotes for Arg16 compared with carriers of the other two genotypes): significant deterioration in lung function

CCC(=O)O[C@]1(C(=O)SCF)[C@H](C)C[C@H]2[C@@H]3C[C@H](F)C4=CC(=O)C=C[C@]4(C)[C@@]3(F)[C@@H](O)C[C@@]21C [fluticasone, fluticasone propionate]
Fraction of children with FEV1 response to fluticasone but not to montelukast [2]: one-fourth

CC(=O)OC(C)C[N+](C)(C)C (stereo not shown) [methacholine]
Methacholine PC20 ([3]; 4/4 diplotype, n=18): 0.6 (0.3, 1.1) mg/ml
Methacholine PC20 ([3]; all other diplotypes, n=106): 1.4 (1.1, 1.7) mg/ml
Dose of methacholine causing a 20% fall in FEV1, difference between groups ([3]; lower in the 4/4 diplotype than in the other diplotypes, adjusted for baseline percent predicted FEV1, p=0.015): 1.3 doubling doses
